US11970461B1, “1-hexyl-5-(4-methoxyphenyl)-2,4-diphenyl-1H-imidazole as an antimicrobial compound” (KING FAISAL UNIVERSITY, priority 2023, dated 2024)

Columns and labels:
Escherichia coli = test: antimicrobial testing by agar dilution, Escherichia coli; type: cell-based; conditions: after 10, 20, 40 and 60 minutes at all dilutions 1:100, 1:200, 1:400, 1:800
Protocol: (§1) The antimicrobial properties of the 1-hexyl-5-(4-methoxyphenyl)-2,4-diphenyl-1H-imidazole was studied by the method of agar dilution. Test solutions of each compound was prepared in concentration of 1% using dimethylformamide as a solvent then they are diluted in physiological solution to obtain the final experimental dilutions 1:100, 1:200, 1:400, 1:800. The effect of these substances are compared with furacillin in a controllable study. The testing microbes used were gram positive bacteria Staphylococcus aureus, gram negative bacteria Escherichia coli, Pseudomonas aeruginosa and Candida albicans fungi were taken. The experiments used for this survey were meat-pentonlu agar (EPA) for cultivation of bacteria and Saburo environment for fungi. Each experiment used 1 ml of test solution on each plate 500 min. Add 2 drops of emulsified with microbes feel. All experimental samples were taken from the agar after 10, 20, 40, 60 minutes in the environment on the basis of Patrk planted. Bacteria were cultivated at a temperature of 37° C. for 1 day and the mushroom was kept in a thermostat for […] at a temperature of 28° C. Then the results were checked.

Candida albicans = test: antimicrobial testing by agar dilution, Candida albicans; type: cell-based; conditions: after 10, 20, 40 and 60 minutes at all dilutions 1:100, 1:200, 1:400, 1:800
Protocol: as §1

Pseudomonas aeruginosa = test: antimicrobial testing by agar dilution, Pseudomonas aeruginosa; type: cell-based; conditions: after 10, 20, 40 and 60 minutes at all dilutions 1:100, 1:200, 1:400, 1:800
Protocol: as §1

Staphylococcus aureus = test: antimicrobial testing by agar dilution, Staphylococcus aureus; type: cell-based; conditions: after 10, 20, 40 and 60 minutes at all dilutions 1:100, 1:200, 1:400, 1:800
Protocol: as §1

CCCCCCn1c(-c2ccccc2)nc(-c2ccccc2)c1-c1ccc(OC)cc1 [1-hexyl-5-(4-methoxyphenyl)-2,4-diphenyl-1H-imidazole]
melting point: 161 to 162 °C
inhibition activity, Escherichia coli (Escherichia coli): higher inhibition activity
inhibition activity, Candida albicans (Candida albicans): higher inhibition activity
inhibition activity, Pseudomonas aeruginosa (Pseudomonas aeruginosa): higher inhibition activity
inhibition activity, Staphylococcus aureus (Staphylococcus aureus): higher inhibition activity
